Test results reported in patent US4778799A, “Synergistic combination of flupirtin and non-steroidal antiphlogistic” (priority 1985, dated 1988).
Structures can show the parent of a compound that is named as a salt. Where two headings read alike, the source gives them in different places.

How the values were obtained:
[1] = Acetic Acid-Writhing Test according to Koster et al., analgetic activity, per os; format: in vivo, white mouse (NMRI-Mouse); parameters: ED50: unit: mg/kg; details: for ED50: substance alone, 30 minutes after giving, linear regression; for factor for the increase in activity of the analgetic action in combination with Flupirtin: compared to analgetic side activity component of the pure antiphlogistic; for minimal effective dose: read-out: lowest analgetically effective dosage; for inhibition in vivo at 3 mg/kg: 3.0 mg/kg per os; for inhibition in vivo at 5 mg/kg: 5.0 mg/kg per os; for inhibition in vivo at 6 mg/kg: 6.0 mg/kg per os; for inhibition in vivo at 10 mg/kg: 10.0 mg/kg per os
Description: These investigations were carried out in the Acetic Acid Test (Writhing Test) on the white mouse.
Writhing According to Koster et al; Fed.
(§1) Animal: White Mouse (NMRI-Mouse); Application: per os
Writhing Test According to Koster et al.: Fed.
as §1
The pain reaction is expressed as a characteristic stretching of the animals ("writhing syndrome") which persists in irregular time intervals for a long period of time after the injection of the acetic acid. The dosage dependent suppression of the frequency of the stretching motion compared to an untreated control group is expressed in percent as analgetic effect. The evaluation is carried out by determination of the ED50 (Method of Linear Regression).
The acetic acid test is marked by the fact that not only is there detectable the effect of strong, central acting analgetics but also preponderantly peripherally acting analgetics-antipyretics and antiphlogistically active pharmaceuticals such as phenyl butazone, Indometacin and others. Therewith the effect in this procedure refers to a peripheral component of the analgesic.

[2] = antiphlogistic alone, per os, mouse; cited from earlier work
[3] = Randall-Selitto Test, inflammation pain, per os; format: in vivo, albino rat (Sprague-Dawley); details: for ED50: Rattus norvegicus, po, 0.5 h
Description: Randall-Selitto-Test According to Randall, Selitto, Arch. int.
Animal: Albino-Rat (Sprague-Dawley); Application: per os
Sucker, Fuchs, Speiser, Pharmazeutische Technologie, Thieme-Verlag, Stuttgart, 1978. Short Description of the Pharmacological Test Methods Mentioned in the Application Randall-Selitto-Test (Inflammation Pain on the Rat)
In accordance with the method of Randall and Selitto (L. O. Randall, J. J. Selitto, Arch. int. Pharmacodyn., Volume 111, pages 409-418, 1957) rats were injected subplantarly with […] of a 20% (in dimineralized water) brewer's yeast suspension in the right hind paw. 21/2 hours later the test materials were dispensed and 30 minutes later the swelling pain measured with an Algesiemeter as pressure (in grams) on the inflamed paw (apparatus of Ugo Basile, Milan, Italy). As criteria there are considered the defensive reaction of the animals drawing the paw away and/or freeing themselves from the grip of the experimenters. The effect of the material was determined from the increase of the swelling pain compared to the untreated control group. The experimental procedure different from the original method in that the materials were applied 21/2 hours after the setting of edema and not simultaneously therewith. In this way there should be prevented the development of edema, being checked by a possible antiphlogistic action and the analgesy superimposed or simulated.
The ED50 was determined by means of the method of linear regression.

[4] = Bradykinin-Edema Test, antiphlogistic activity, per os; format: in vivo, albino rat (Sprague-Dawley); details: alone; for ED50: per os, printed in words: no ED50 defineable
Description: Bradykinin-Edema-Test Relying On and Modification of the Method of
Morsdorf et al (Arch. int. Pharmacodyn. 192,111-127 (1971). Animal:
Albino-rat (Sprague-Dawley):
Relying on the modification of the method of Morsdorf et al (Arch. int. Pharmacodyn. Volume 192, pages 111-127 (1971)) male rats received subplantarly in the right hind paw an injection of a 1% carrageenin solution (Carrageenin, Type IV, Sigma C-3889). One hour and four hours later there was determined the volume of the paw. To measure the volume there was used a volume meter (Rhema-Labortechnik Company, D-6238 Hofheim, Type 2060). Directly after the first measurement the test substance was dispensed by means of a gullet stomach catheter. There was calculated the increase in the swelling of the paw in the second measurement compared to the first measurement in absolute values (ml). The evaluation included the determination of the percent average value of the difference of the edema volumes one and four hours after receiving the inflammatory solution. The edema inhibiting action was calculated in percent from the edema volume measured by water displacement in comparison to the edema volume of the untreated inflammed control group.
As the single change in comparison to the Carrageenin-Edema Test in place of Carrageenin there was injected subplantarly Bradykinin (Sigma B 3259) 0.01 mg/animal in 0.1 ml of a 0.9% sodium chloride solution.

[5] = Ulcerogenic effect (stomach mucosa erosion) 24 hours after single oral dispensation; format: in vivo, albino rat (Sprague-Dawley); details: 24 mg/kg Diclofenac alone per os
Description: Testing of Ulcerogenic Effect Relying On the Method of Jahn and Adrian (Arzneimittelforschung, Volume 19 (1969) pages 36-52)
The experimental animals are male albino rats which are maintained under the usual conditions at 21°-22° C. After 48 hours of qualified feeding the test materials were dispensed perorally an increasing dosages. The animals were killed 24 hours later and the stomachs investigated for ulcerogenic changes according to the method of Munchow, Arzneimittelforschung, Volume 4 (1954), pages 341-344. (The size of the ulcers formed is measured are classified according to Munchow.)

[6] = Mus musculus, po, 0.5 h, per os
[7] = Mus musculus, po, read-out: Activity in %
[8] = alone, per os, 30 minutes after giving, linear regression, read-out: ED50
[9] = Mus musculus, po, 0.5 h, per os, read-out: ED50
[10] = Mus musculus, po, alone, 4.0 mg/kg per os, read-out: Activity in %

SMILES: CC(=O)Oc1ccccc1C(=O)O [Acetylsalicylic Acid, acetylsalicylic acid]
- ED50 [1, 6]: 149 mg/kg
- inhibition in vivo at 25 mg/kg [1, 7]: 11%
- inhibition in vivo at 50 mg/kg [1, 7]: 30.1%
- inhibition in vivo at 75 mg/kg [1, 7]: 39%
- inhibition in vivo at 100 mg/kg [1, 7]: 41.1%
- inhibition in vivo at 150 mg/kg [1, 7]: 43.2%
- inhibition in vivo at 200 mg/kg [1, 7]: 59.6%
- inhibition in vivo at 400 mg/kg [1, 7]: 71.2%
- factor for the increase in activity of the analgetic action in combination with Flupirtin [1]: 2-15
- LD50 [2]: 815 mg/kg

SMILES: O=C(O)Cc1ccccc1Nc1c(Cl)cccc1Cl [Diclofenac]
- ED50 [1, 6]: 12 mg/kg
- inhibition in vivo at 3.9 mg/kg [1, 7]: 33.3%
- inhibition in vivo at 7.8 mg/kg [1, 7]: 50%
- inhibition in vivo at 15.6 mg/kg [1, 7]: 45.8%
- inhibition in vivo at 31.25 mg/kg [1, 7]: 66%
- inhibition in vivo at 62.5 mg/kg [1, 7]: 67.4%
- inhibition in vivo at 125 mg/kg [1, 7]: 91.7%
- minimal effective dose ([1]; Mus musculus, po): 3.9 mg/kg
- ED50 ([1]; per os, 30 min): 12.1 mg/kg
- ED50 [3, 8]: 2.95 mg/kg
- Activity in % ([3]; alone, 1.0 mg/kg per os): 20.99%
- Activity in % ([3]; alone, 3.0 mg/kg per os): 32.60%
- Activity in % ([3]; alone, 10.0 mg/kg per os): 100.55%
- Activity in % ([3]; alone, 30.0 mg/kg per os): 135.36%
- Activity in % (- = inhibiting) ([4]; 1.0 mg/kg per os): +2.9%
- Activity in % (- = inhibiting) ([4]; 3.0 mg/kg per os): +8.6%
- Activity in % (- = inhibiting) ([4]; 9.0 mg/kg per os): -31.4%
- Activity in % (- = inhibiting) ([4]; 27.0 mg/kg per os): -45.7%
- ED50 [4]: No ED50
- ulcerogenic effect (stomach mucosa erosion) [5]: erosion of the stomach mucosa

SMILES: CCOC(=O)Nc1ccc(NCc2ccc(F)cc2)nc1N [Flupirtin (Gluconate)]
- ED50 [1, 6]: 43.9 mg/kg
- inhibition in vivo at 0.56 mg/kg [1, 7]: 19.2%
- inhibition in vivo at 1.12 mg/kg [1, 7]: 28%
- inhibition in vivo at 2.24 mg/kg [1, 7]: 37.6%
- inhibition in vivo at 4.47 mg/kg [1, 7]: 46.4%
- inhibition in vivo at 8.93 mg/kg [1, 7]: 38.4%
- inhibition in vivo at 17.85 mg/kg [1, 7]: 22.4%
- inhibition in vivo at 35.7 mg/kg [1, 7]: 61.6%

SMILES: CCOC(=O)Nc1ccc(NCc2ccc(F)cc2)nc1N [Flupirtin (Hydrochloride)]
- ED50 [3]: 30.9 mg/kg
- Activity in % ([3]; alone, 10.0 mg/kg per os): -8.3%
- Activity in % ([3]; alone, 20.0 mg/kg per os): 23.2%
- Activity in % ([3]; alone, 30.0 mg/kg per os): 45.8%
- Activity in % ([3]; alone, 40.0 mg/kg per os): 67.5%
- Activity in % (- = inhibiting) ([4]; 5.0 mg/kg per os): +4.6%
- Activity in % (- = inhibiting) ([4]; 10.0 mg/kg per os): -25.0%
- Activity in % (- = inhibiting) ([4]; 20.0 mg/kg per os): -13.6%
- Activity in % (- = inhibiting) ([4]; 30.0 mg/kg per os): -2.3%
- ED50 [4]: no ED50

SMILES: CCOC(=O)Nc1ccc(NCc2ccc(F)cc2)nc1N [Flupirtin, 2-amino-3-carbethoxyamino-6-(fluoro-benzylamino)-pyridine]
- ED50 [1, 9]: 44 mg/kg
- minimal effective dose ([1]; Mus musculus, po, alone, per os): 2.24 mg/kg

SMILES: COc1ccc2c(c1)c(CC(=O)N[C@@H](C=O)[C@@H](O)[C@H](O)[C@H](O)CO)c(C)n2C(=O)c1ccc(Cl)cc1 [Glucametacin]
- factor for the increase in activity of the analgetic action in combination with Flupirtin [1]: 2-15

SMILES: COc1ccc2c(c1)c(CC(=O)O)c(C)n2C(=O)c1ccc(Cl)cc1 [Indometacin]
- ED50 [1, 6]: 4.3 mg/kg
- inhibition in vivo at 2 mg/kg [1, 7]: 17.3%
- inhibition in vivo at 4 mg/kg [1, 7]: 50%
- inhibition in vivo at 8 mg/kg [1, 7]: 86.3%
- inhibition in vivo at 16 mg/kg [1, 7]: 82.1%
- factor for the increase in activity of the analgetic action in combination with Flupirtin [1]: 2-15
- ED50 [3, 8]: 2.77 mg/kg
- Activity in % ([3]; alone, 1.0 mg/kg per os): 12.3%
- Activity in % ([3]; alone, 2.0 mg/kg per os): 22.05%
- Activity in % ([3]; alone, 4.0 mg/kg per os): 58.97%
- Activity in % ([3]; alone, 8.0 mg/kg per os): 114.87%
- Activity in % ([3]; alone, 16.0 mg/kg per os): 127.18%
- LD50 [2]: 21 mg/kg

SMILES: Cc1cc(NC(=O)C2=C(O)c3ccccc3S(=O)(=O)N2C)no1 [Isoxicam]
- ED50 [1, 9]: 6.6 mg/kg
- inhibition in vivo at 3 mg/kg ([1]; Mus musculus, po, alone): 10.1%
- inhibition in vivo at 4 mg/kg [1, 10]: 30.2%
- inhibition in vivo at 5 mg/kg ([1]; Mus musculus, po, alone): 36.7%
- inhibition in vivo at 6 mg/kg ([1]; Mus musculus, po, alone): 46%
- inhibition in vivo at 7 mg/kg ([1]; Mus musculus, po, alone, 7.0 mg/kg per os): 51.1%
- inhibition in vivo at 8 mg/kg ([1]; Mus musculus, po, alone, 8.0 mg/kg per os, read-out: Activity in %): 62.6%
- inhibition in vivo at 10 mg/kg ([1]; Mus musculus, po, alone): 66.2%
- factor for the increase in activity of the analgetic action in combination with Flupirtin [1]: 2-15

SMILES: COc1ccc2cc([C@H](C)C(=O)O)ccc2c1 [Naproxen]
- inhibition in vivo at 0.38 mg/kg ([1]; Mus musculus, po, alone, 0.38 mg/kg per os): 21.7%
- inhibition in vivo at 0.75 mg/kg ([1]; Mus musculus, po, alone, 0.75 mg/kg per os): 42%
- inhibition in vivo at 1.5 mg/kg ([1]; Mus musculus, po, alone, 1.5 mg/kg per os): 43.4%
- inhibition in vivo at 3 mg/kg ([1]; Mus musculus, po, alone): 53.8%
- inhibition in vivo at 6 mg/kg ([1]; Mus musculus, po, alone): 70%
- inhibition in vivo at 12 mg/kg ([1]; Mus musculus, po, alone, 12.0 mg/kg per os): 74.1%
- inhibition in vivo at 24 mg/kg ([1]; Mus musculus, po, alone, 24.0 mg/kg per os): 54.5%
- factor for the increase in activity of the analgetic action in combination with Flupirtin [1]: 2-15

SMILES: CN1C(C(=O)Nc2ccccn2)=C(O)c2ccccc2S1(=O)=O [Piroxicam]
- ED50 [1, 9]: 3.46 mg/kg
- inhibition in vivo at 1 mg/kg ([1]; Mus musculus, po, alone, 1.0 mg/kg per os): 38.2%
- inhibition in vivo at 3 mg/kg ([1]; Mus musculus, po, alone): 40%
- inhibition in vivo at 4 mg/kg [1, 10]: 53.6%
- inhibition in vivo at 5 mg/kg ([1]; Mus musculus, po, alone): 61.8%
- inhibition in vivo at 10 mg/kg ([1]; Mus musculus, po, alone): 70.9%
- inhibition in vivo at 20 mg/kg ([1]; Mus musculus, po, alone, 20.0 mg/kg per os): 49.1%
- factor for the increase in activity of the analgetic action in combination with Flupirtin [1]: 2-15
- LD50 [2]: 350 mg/kg

SMILES: CC1=C(CC(=O)O)c2cc(F)ccc2/C1=C\c1ccc([S+](C)[O-])cc1 (stereo not drawn) [Sulindac]
- ED50 [1, 9]: 2.3 mg/kg
- inhibition in vivo at 0.47 mg/kg [1, 7]: 29.6%
- inhibition in vivo at 0.94 mg/kg [1, 7]: 44.6%
- inhibition in vivo at 1.88 mg/kg [1, 7]: 49.7%
- inhibition in vivo at 3.75 mg/kg [1, 7]: 56%
- inhibition in vivo at 7.5 mg/kg [1, 7]: 61%
- inhibition in vivo at 15 mg/kg [1, 7]: 71.1%
- inhibition in vivo at 30 mg/kg [1, 7]: 72.3%
- factor for the increase in activity of the analgetic action in combination with Flupirtin [1]: 2-15
